Holding throughout (format): functional
In assay [1] the test system is Candida albicans. In words: Antifungal activity against Candida albicans by broth dilution method. (Broth dilution looks for growth in wells or tubes with falling amounts of substance.)
Assay [2] has as its system Aspergillus flavus. In words: Antifungal activity against Aspergillus flavus by broth dilution method.
Assay [3] relates to Aspergillus niger. The assay can be described thus: Antifungal activity against Aspergillus niger by broth dilution method.
Assay [4] relates to Bacillus subtilis. In words: Antibacterial activity against Bacillus subtilis NCIM 2063 by broth dilution method.
For assay [5], the system named is Escherichia coli. In words: Antibacterial activity against Escherichia coli NCIM 2256 by broth dilution method.
Assay [6] relates to Staphylococcus aureus. In words: Antibacterial activity against Staphylococcus aureus NCIM 2901 by broth dilution method.

In brackets after ≈: the same amount, converted by molar mass.

The MIC is the lowest concentration found to suppress growth. The low end stands for a more susceptible organism, the high end for a less susceptible organism.

For `Clc1ccc(COC(Cn2ccnc2)c2ccc(Cl)cc2Cl)c(Cl)c1` (stereo unspecified) [MICONAZOLE], the MIC in assay [1], in assay [2] and in assay [3] was 12.5 µg/mL (≈ 30 µM) throughout.

Turning to `Cc1nc(NC(=O)CN2CCC(Cc3ccccc3)CC2)sc1C`, the MIC in assay [4] is 28 µg/mL (≈ 81.5 µM); in assay [5], 29 µg/mL (≈ 84.4 µM); in assay [6], 30 µg/mL (≈ 87.3 µM); in assay [1], 25 µg/mL (≈ 72.8 µM); in assay [2] it was 12.5 µg/mL (≈ 36.4 µM); in assay [3], 12.5 µg/mL (≈ 36.4 µM).

In the case of `CCOC(=O)c1sc(NC(=O)CN2CCCCC2)nc1C`, the MIC was 45 µg/mL (≈ 145 µM) in assay [4]; 60 µg/mL (≈ 193 µM) in assay [5]; 100 µg/mL (≈ 321 µM) in assay [6]; 75 µg/mL (≈ 241 µM) in assay [1]; 100 µg/mL (≈ 321 µM) in assay [2]; 100 µg/mL (≈ 321 µM) in assay [3].

For the compound `CCOC(=O)c1sc(NC(=O)CN2CCC(Cc3ccccc3)CC2)nc1C`, the MIC turned out to be 35 µg/mL (≈ 87.2 µM) in assay [4]; 50 µg/mL (≈ 125 µM) in assay [5]; 70 µg/mL (≈ 174 µM) in assay [6]; 75 µg/mL (≈ 187 µM) in assay [1]; 50 µg/mL (≈ 125 µM) in assay [2]; 50 µg/mL (≈ 125 µM) in assay [3].

Regarding `CCOC(=O)c1sc(NC(=O)CN2CCC(c3ccccc3)CC2)nc1C`, the MIC in assay [4] was found to be 28 µg/mL (≈ 72.3 µM); in assay [5] it was 29 µg/mL (≈ 74.8 µM); in assay [6], 30 µg/mL (≈ 77.4 µM); in assay [1], 25 µg/mL (≈ 64.5 µM); in assay [2], 12.5 µg/mL (≈ 32.3 µM); in assay [3], 25 µg/mL (≈ 64.5 µM).

As for `CCOC(=O)c1sc(NC(=O)CN2CCC(Cc3ccccc3)CC2)nc1-c1ccccc1`, the MIC in assay [4] came to 25 µg/mL (≈ 53.9 µM); in assay [5] it was 29 µg/mL (≈ 62.6 µM); in assay [6] it was 28 µg/mL (≈ 60.4 µM); in assay [1], 50 µg/mL (≈ 108 µM); in assay [2] it was 25 µg/mL (≈ 53.9 µM); in assay [3], 25 µg/mL (≈ 53.9 µM).

For the compound `C[C@H]1COc2c(N3CCN(C)CC3)c(F)cc3c(=O)c(C(=O)O)cn1c23.C[C@H]1COc2c(N3CCN(C)CC3)c(F)cc3c(=O)c(C(=O)O)cn1c23.O` [LEVOFLOXACIN], the values for the MIC in assay [4], in assay [5] and in assay [6] were 29 µg/mL, 29 µg/mL and 28 µg/mL, respectively.

For `CCOC(=O)c1cnc(NC(=O)CN2CCC(Cc3ccccc3)CC2)s1`, the MIC was 29 µg/mL (≈ 74.8 µM) in assay [4]; 29 µg/mL (≈ 74.8 µM) in assay [5]; 28 µg/mL (≈ 72.3 µM) in assay [6]; 25 µg/mL (≈ 64.5 µM) in assay [1]; 12.5 µg/mL (≈ 32.3 µM) in assay [2]; 12.5 µg/mL (≈ 32.3 µM) in assay [3].

Consider `CC(=O)c1sc(NC(=O)CN2CCC(Cc3ccccc3)CC2)nc1C`, for which the MIC in assay [4] is 35 µg/mL (≈ 94.2 µM); in assay [5], 60 µg/mL (≈ 162 µM); in assay [6], 50 µg/mL (≈ 135 µM); in assay [1] it was 100 µg/mL (≈ 269 µM); in assay [2], 50 µg/mL (≈ 135 µM); in assay [3], 50 µg/mL (≈ 135 µM).

Turning to `OC(Cn1cncn1)(Cn1cncn1)c1ccc(F)cc1F` [FLUCONAZOLE], the MIC in assay [1] is 40 µg/mL (≈ 131 µM); in assay [2] it was 25 µg/mL (≈ 81.6 µM); in assay [3] it was 25 µg/mL (≈ 81.6 µM).

With `COC(=O)c1cnc(NC(=O)CN2CCC(Cc3ccccc3)CC2)s1`, the MIC in assay [4] is 35 µg/mL (≈ 93.7 µM); in assay [5] it was 60 µg/mL (≈ 161 µM); in assay [6] it was 50 µg/mL (≈ 134 µM); in assay [1], 100 µg/mL (≈ 268 µM); in assay [2], 50 µg/mL (≈ 134 µM); in assay [3], 50 µg/mL (≈ 134 µM).

For `COC(=O)c1sc(NC(=O)CN2CCC(Cc3ccccc3)CC2)nc1C1CC1`, the MIC stood at 29 µg/mL (≈ 70.1 µM) in assay [4]; 29 µg/mL (≈ 70.1 µM) in assay [5]; 28 µg/mL (≈ 67.7 µM) in assay [6]; 25 µg/mL (≈ 60.5 µM) in assay [1]; 12.5 µg/mL (≈ 30.2 µM) in assay [2]; 12.5 µg/mL (≈ 30.2 µM) in assay [3].

`CCOC(=O)c1sc(NC(=O)CN2CCC(Cc3ccccc3)CC2)nc1CC`: the MIC in assay [4] came out at 40 µg/mL (≈ 96.3 µM); in assay [5] it was 100 µg/mL (≈ 241 µM); in assay [6] it was 100 µg/mL (≈ 241 µM); in assay [1] it was 75 µg/mL (≈ 180 µM); in assay [2], 100 µg/mL (≈ 241 µM); in assay [3], 100 µg/mL (≈ 241 µM).

As for `CCOC(=O)c1sc(NC(=O)CN2CCC(C)CC2)nc1C`, the MIC in assay [4] is 35 µg/mL (≈ 108 µM); in assay [5] it was 50 µg/mL (≈ 154 µM); in assay [6], 70 µg/mL (≈ 215 µM); in assay [1] it was 75 µg/mL (≈ 230 µM); in assay [2], 50 µg/mL (≈ 154 µM); in assay [3] it was 50 µg/mL (≈ 154 µM).

On to `Cc1csc(NC(=O)CN2CCC(Cc3ccccc3)CC2)n1`, for which the MIC in assay [4] was determined as 35 µg/mL (≈ 106 µM); in assay [5], 50 µg/mL (≈ 152 µM); in assay [6], 70 µg/mL (≈ 212 µM); in assay [1], 75 µg/mL (≈ 228 µM); in assay [2], 50 µg/mL (≈ 152 µM); in assay [3], 50 µg/mL (≈ 152 µM).
